Earlier results in US8524285B2, “Nutraceutical mangosteen composition” (DBC, LLC, priority 2002, dated 2013).

What was measured:
[1] = biological target: COX-1 (Homo sapiens, UniProt P23219); details: constitutive isoform; Nakatani et al. (2002)
[2] = biological target: T1, type B monoamine oxidase (Homo sapiens, UniProt P27338); details: Nakatani et al., 63 Biochemical Pharmacology 73-79 (2002)
T1 sequence (P27338 1-520): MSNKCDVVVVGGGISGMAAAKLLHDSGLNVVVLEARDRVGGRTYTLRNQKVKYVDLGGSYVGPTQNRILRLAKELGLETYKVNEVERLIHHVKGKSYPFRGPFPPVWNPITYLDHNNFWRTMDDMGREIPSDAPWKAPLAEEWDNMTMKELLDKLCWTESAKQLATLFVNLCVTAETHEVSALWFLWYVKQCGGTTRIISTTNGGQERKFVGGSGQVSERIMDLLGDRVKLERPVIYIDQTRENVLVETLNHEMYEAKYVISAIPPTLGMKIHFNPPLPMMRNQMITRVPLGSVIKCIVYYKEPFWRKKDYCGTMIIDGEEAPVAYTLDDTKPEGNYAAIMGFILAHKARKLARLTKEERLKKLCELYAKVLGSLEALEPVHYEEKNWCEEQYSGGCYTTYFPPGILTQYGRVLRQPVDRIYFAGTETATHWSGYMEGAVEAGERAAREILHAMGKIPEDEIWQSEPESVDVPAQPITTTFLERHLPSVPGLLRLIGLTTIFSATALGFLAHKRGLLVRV

[3] = system: prostaglandin E2 synthesis; details: Nakatani et al. (2002)
[4] = biological target: T2, type A monoamine oxidase (Homo sapiens, UniProt P21397); details: Nakatani et al., 63 Biochemical Pharmacology 73-79 (2002)
T2 sequence (P21397 1-527): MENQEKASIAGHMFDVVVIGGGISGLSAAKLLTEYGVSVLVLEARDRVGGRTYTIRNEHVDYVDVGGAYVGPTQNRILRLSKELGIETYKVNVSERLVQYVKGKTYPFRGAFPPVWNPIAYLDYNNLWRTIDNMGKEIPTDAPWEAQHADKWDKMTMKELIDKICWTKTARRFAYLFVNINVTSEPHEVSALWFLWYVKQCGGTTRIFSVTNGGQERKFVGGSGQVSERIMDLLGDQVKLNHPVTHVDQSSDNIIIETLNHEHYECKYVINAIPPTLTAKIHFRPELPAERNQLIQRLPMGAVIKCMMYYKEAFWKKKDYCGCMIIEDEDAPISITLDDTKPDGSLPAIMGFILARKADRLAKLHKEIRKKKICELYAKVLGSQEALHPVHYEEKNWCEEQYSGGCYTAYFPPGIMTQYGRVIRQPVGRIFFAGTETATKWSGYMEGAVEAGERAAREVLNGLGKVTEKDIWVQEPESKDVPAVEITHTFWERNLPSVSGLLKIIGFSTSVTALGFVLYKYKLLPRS

Sequence of COX-1 (P23219 24-599): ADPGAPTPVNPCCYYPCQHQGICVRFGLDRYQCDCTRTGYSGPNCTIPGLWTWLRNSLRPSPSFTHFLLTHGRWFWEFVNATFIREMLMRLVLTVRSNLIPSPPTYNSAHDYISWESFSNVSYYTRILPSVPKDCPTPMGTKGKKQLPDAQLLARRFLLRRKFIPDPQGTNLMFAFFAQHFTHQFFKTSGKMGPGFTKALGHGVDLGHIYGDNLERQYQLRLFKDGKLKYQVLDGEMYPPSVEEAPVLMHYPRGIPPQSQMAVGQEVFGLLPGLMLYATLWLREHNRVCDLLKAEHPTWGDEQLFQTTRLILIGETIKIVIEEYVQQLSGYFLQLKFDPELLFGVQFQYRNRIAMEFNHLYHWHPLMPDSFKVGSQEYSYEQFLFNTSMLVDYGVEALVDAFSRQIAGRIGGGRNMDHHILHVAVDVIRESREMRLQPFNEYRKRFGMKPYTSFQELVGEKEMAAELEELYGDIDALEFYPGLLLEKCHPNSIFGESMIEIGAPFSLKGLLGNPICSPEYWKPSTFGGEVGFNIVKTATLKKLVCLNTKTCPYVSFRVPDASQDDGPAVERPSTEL

## CC(C)=CCc1c(O)cc2oc3cc(O)c(O)c(CC=C(C)C)c3c(=O)c2c1O [γ-mangostin]
[1]
  inhibition of COX-1 activity: directly inhibit
[2]
  inhibition of type B monoamine oxidase: inhibits
[3]
  inhibition of prostaglandin E2 synthesis: inhibits
[4]
  inhibition of type A monoamine oxidase: inhibits
